Laboratory results: article doi:10.1101/2022.01.05.475095v1 (biorxiv, 2022)

The compounds below were run against T1, SARS-CoV-2 PLpro (Severe acute respiratory syndrome coronavirus 2, UniProt P0DTD1) (assay: fluorogenic Z-RLRGG-AMC cleavage assay). Conditions: read-out: % inhibition at 10 μM.
Format: biochemical
Compound `CC(=O)NC1=CC(=O)c2c(cccc2[N+](=O)[O-])C1=O` [compound 415, 415] has an inhibition at 10 µM of 63 ± 9%. Compound `Cc1ccc(S(=O)(=O)n2cc(CN(C3=CC(=O)c4ccccc4C3=O)c3ccc(Br)cc3)nn2)cc1` [compound 314, 314] has an inhibition at 10 µM of 55 ± 7%. `Cc1ccc(S(=O)(=O)n2cc(CNC3=CC(=O)c4ccccc4C3=O)nn2)cc1` [compound 319, 319] gave an inhibition at 10 µM of 69 ± 3%.

The compounds below were run against T1, SARS-CoV-2 PLpro (assay: biochemical). Conditions: read-out: PLpro % inhibition at 10 µM.
In the case of `O=C1C(Sc2ccccc2)=C(Sc2ccccc2)C(=O)c2ccccc21` [compound 379], the inhibition at 10 µM is reported as 0%. In the case of `CC1(C)CC2=C(O1)c1ccccc1C(=NNc1ccccc1)C2=O` [compound 673, 673], the inhibition at 10 µM is reported as 4 ± 4%. `CC(=O)c1ccc(N(Cc2cn(S(=O)(=O)c3ccc(C)cc3)nn2)C2=CC(=O)c3ccccc3C2=O)cc1` [compound 318] was tested, and the inhibition at 10 µM was 9 ± 5%. `CC1(C)OC2=C(C(=O)C(=O)c3ccccc32)C1n1cc(CNC2=CC(=O)c3ccccc3C2=O)nn1` (stereo not shown) [compound 189] gave an inhibition at 10 µM of 100%. `O=C1C(Sc2ccc(Br)cc2)=C(Sc2ccc(Br)cc2)C(=O)c2ccccc21` [compound 380, 380] gave an inhibition at 10 µM of 12 ± 6%. In the case of `CC1(C)OC2=C(C(=O)C(=O)c3ccccc32)C1n1cc(-c2ccccc2)nn1` (stereo not shown) [compound 159], the inhibition at 10 µM is reported as 100 ± 1%. Work on `COc1ccc(SC2=C(Sc3ccc(OC)cc3)C(=O)c3ccccc3C2=O)cc1` [compound 382] yielded an inhibition at 10 µM of 0%. `Cc1ccc(S(=O)(=O)n2cc(CNC3=C(Cl)C(=O)c4ccccc4C3=O)nn2)cc1` [compound 320, 320] gave an inhibition at 10 µM of 31 ± 6%. `CC(=O)NC1=CC(=O)c2cccc(O)c2C1=O` [compound 414, 414] gave an inhibition at 10 µM of 38 ± 2%. Work on `Cc1ccc(S(=O)(=O)c2cccc3c2C(=O)c2ccccc2C3=O)cc1` [compound 477, 477] yielded an inhibition at 10 µM of 0%. Work on `CC1(C)OC2=C(CC1Br)C(=O)C(=NNc1ccccc1)c1ccccc12` (stereo not shown) [compound 666, 666] yielded an inhibition at 10 µM of 0%. `Cc1ccc(S(=O)(=O)n2cc(CNC3=C(Br)C(=O)c4ccccc4C3=O)nn2)cc1` [compound 321, 321] gave an inhibition at 10 µM of 17 ± 0.2%. Compound `CC1(C)OC2=C(C(=O)C(=O)c3ccccc32)C1n1cc(CNC2=C(Br)C(=O)c3ccccc3C2=O)nn1` (stereo not shown) [compound 191] has an inhibition at 10 µM of 93 ± 0.7%.
